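Five compound concentrations were applied to cells in 96-well plates for 48 hours; endpoints were derived by simple linear interpolation of the resulting dose-response curve. GI50 is the concentration that inhibits growth by half. TGI: total growth inhibition.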
Experiments:
Test in all cases: NCI-60 cell line screen, 48 h
[1] = system: NCI/ADR-RES ovarian
[2] = system: TK-10 renal
[3] = system: UACC-62 melanoma
[4] = system: EKVX NSCLC
[5] = system: RPMI-8226 leukemia
[6] = system: SNB-19 CNS
[7] = system: ACHN renal
[8] = system: CAKI-1 renal
[9] = system: BT-549 breast
[10] = system: CCRF-CEM leukemia
[11] = system: RXF 393 renal
[12] = system: SF-539 CNS
[13] = system: HOP-62 NSCLC
[14] = system: MALME-3M melanoma
[15] = system: T-47D breast
[16] = system: SK-OV-3 ovarian
[17] = system: OVCAR-3 ovarian
[18] = system: HCC-2998 colon
[19] = system: OVCAR-8 ovarian
[20] = system: NCI-H522 lung
[21] = system: HT29 colon
[22] = system: UACC-257 melanoma
[23] = system: SW-620 colon
[24] = system: M14 melanoma
[25] = system: HS 578T breast
[26] = system: KM12 colon
[27] = system: 786-0 renal
[28] = system: OVCAR-4 ovarian
[29] = system: SK-MEL-5 melanoma
[30] = system: NCI-H460 lung
[31] = system: HCT-116 colon
[32] = system: MDA-MB-468 breast
[33] = system: HL-60(TB) leukemia
[34] = system: HCT-15 colon
[35] = system: OVCAR-5 ovarian
[36] = system: SN12C renal
[37] = system: SK-MEL-28 melanoma
[38] = system: MDA-MB-435
[39] = system: COLO 205 colon
[40] = system: NCI-H23 lung
[41] = system: IGROV1 ovarian
[42] = system: K-562 leukemia
[43] = system: LOX IMVI melanoma
[44] = system: SR leukemia
[45] = system: SF-268 CNS
[46] = system: MOLT-4 leukemia
[47] = system: HOP-92 NSCLC
[48] = system: DU-145 prostate
[49] = system: MCF7 breast

COc1cc2cc(C(=O)N3C[C@@H](CCl)c4c3cc(OC(=O)N3CCN(C)[C@@H]5CSSC[C@H]53)c3ccccc43)[nH]c2c(OC)c1OC
GI50 [1]: 11.1 nM
TGI [1]: 52.8 nM
GI50 [2]: 127 nM
TGI [2]: 2400 nM
GI50 [3]: 15.1 nM
TGI [3]: 87.9 nM
GI50 [4]: 18.2 nM
TGI [4]: 133 nM
GI50 [5]: 33.9 nM
TGI [5]: 458 nM
GI50 [6]: 16.4 nM
TGI [6]: 1090 nM
GI50 [7]: < 7.85 nM
TGI [7]: 29.3 nM
GI50 [8]: 27.3 nM
TGI [8]: 586 nM
GI50 [9]: 15.4 nM
TGI [9]: 55.9 nM
GI50 [10]: 26.3 nM
TGI [10]: 2000 nM
GI50 [11]: 9.53 nM
TGI [11]: 20.1 nM
GI50 [12]: 9.97 nM
TGI [12]: 29.3 nM
GI50 [13]: 12.3 nM
TGI [13]: 65.4 nM
GI50 [14]: 13.7 nM
TGI [14]: 33.3 nM
GI50 [15]: 50.2 nM
TGI [15]: 553 nM
GI50 [16]: 12.4 nM
TGI [16]: 44.3 nM
GI50 [17]: 52.7 nM
TGI [17]: 578 nM
GI50 [18]: 15.4 nM
TGI [18]: 37.8 nM
GI50 [19]: 8.62 nM
TGI [19]: 68 nM
GI50 [20]: 12.4 nM
TGI [20]: 48 nM
GI50 [21]: 34.1 nM
TGI [21]: 876 nM
GI50 [22]: 23.9 nM
TGI [22]: 78.4 nM
GI50 [23]: 58.1 nM
TGI [23]: 78500 nM
GI50 [24]: 10.5 nM
TGI [24]: 26.2 nM
GI50 [25]: 159 nM
TGI [25]: 668 nM
GI50 [26]: 43.7 nM
TGI [26]: 3640 nM
GI50 [27]: 16.3 nM
TGI [27]: 69.3 nM
GI50 [28]: 160 nM
TGI [28]: 799 nM
GI50 [29]: 13.2 nM
TGI [29]: 24.2 nM
GI50 [30]: < 7.85 nM
TGI [30]: 791 nM
GI50 [31]: 18.1 nM
TGI [31]: 8510 nM
GI50 [32]: 11.5 nM
TGI [32]: 30.8 nM
GI50 [33]: < 7.85 nM
TGI [33]: 110 nM
GI50 [34]: 21.8 nM
TGI [34]: 554 nM
GI50 [35]: 36.3 nM
TGI [35]: 380 nM
GI50 [36]: 17.1 nM
TGI [36]: 831 nM
GI50 [37]: 14.5 nM
TGI [37]: 31 nM
GI50 [38]: 27.4 nM
TGI [38]: 138 nM
GI50 [39]: 49.2 nM
TGI [39]: 176 nM
GI50 [40]: < 7.85 nM
TGI [40]: 13.8 nM
GI50 [41]: 58.4 nM
TGI [41]: 266 nM
GI50 [42]: 24.6 nM
TGI [42]: 78500 nM
GI50 [43]: 12.2 nM
TGI [43]: 43.5 nM
GI50 [44]: < 7.85 nM
TGI [44]: 61.3 nM
GI50 [45]: 14.8 nM
TGI [45]: 1350 nM
GI50 [46]: < 7.85 nM
TGI [46]: 215 nM
GI50 [47]: 26.7 nM
TGI [47]: 824 nM
GI50 [48]: < 7.85 nM
TGI [48]: 9010 nM
GI50 [49]: < 7.85 nM
TGI [49]: 178 nM
